In US11759462B2, “Spirocyclic compounds as tryptophan hydroxylase inhibitors” (priority 2013, dated 2023):

Tested on: jejunal mucosal 5-HT in mice (C57 BL6)
Assay: Intestinal 5-HT depletion assay (Example B, single 150 mg/kg oral dose)
Format: in vivo, mouse
Settings: one day after oral administration of a single 150 mg/kg dose, P-value class (ANOVA)
Description: The efficacy of the TPH1 inhibitors of the invention was assessed for the ability to decrease intestinal serotonin concentration in mice. Mice (C57 BL6) were administered a single 150 mg/kg dose of test article by oral gavage. Each animal was euthanized by exsanguination under isoflurane anesthesia. Jejunal intestinal mucosa was isolated and homogenized in 300 μL of a buffer containing 0.3M trichloroacetic acid, 0.1M sodium acetate, 10 mM EDTA, 20 mM sodium bisulfate and 50 mM ascorbic acid. Following centrifugation the 5-HT levels in the supernatants were measured by HPLC. The remaining mucosal pellet was solubilized overnight at 37° C. in a 0.1% sodium dodecyl sulfate buffer in 0.1N NaOH followed by determination of protein concentrations using a BCA protein assay (Pierce, Rockford, Ill. 5-HT levels were normalized to protein and data were expressed as mean percent reduction of mucosal 5-HT levels relative to vehicle control SEM (percent 5-HT reduction). All animal studies were carried out with protocols approved by the Institutional Animal Care and Use Committee.
P-values, indicating statistical significance of the data (ANOVA) are provided in the table: * refers to P<0.05, ** refers to P<0.01, *** refers to P<0.005, and refers to P<0.0005.

Compound	Efficacy (statistical significance of reduction of mucosal 5-HT concentrations relative to vehicle)
CCOC(=O)[C@@H]1CC2(CCN(c3cc(O[C@H](c4ccc(-c5ccc(CNC(C)=O)cc5)cc4-n4ccc(C)n4)C(F)(F)F)nc(N)n3)CC2)CN1 [Example 63cp, (S)-ethyl 8-(6-((R)-1-(4′-(acetamidomethyl)-3-(3-methyl-1H-pyrazol-1-yl)-[1,1′-biphenyl]-4-yl)-2,2,2-trifluoroethoxy)-2-aminopyrimidin-4-yl)-2,8-diazaspiro[4.5]decane-3-carboxylate]	*** (*** refers to P<0.005)
(S)-isopropyl 8-(2-amino-6-((R)-1-(4-chloro-2-(3-methyl- 1H-pyrazol-1-yl)phenyl)-2,2,2-trifluoroethoxy)pyrimidin- 4-yl)-2,8-diazaspiro[4.5]decane-3-carboxylate [Example 64h]	** (** refers to P<0.01)
Cc1ccn(-c2cc(Cl)ccc2[C@@H](Oc2cc(N3CCC4(CC3)CN[C@H](C(=O)O)C4)nc(C)n2)C(F)(F)F)n1 [Example 28, (S)-8-(6-((R)-1-(4-chloro-2-(3-methyl-H-pyrazol-1-yl)phenyl)-2,2,2-trifluoroethoxy)-2-methylpyrimidin-4-yl)-2,8-diazaspiro[4.5]decane-3-carboxylic acid]	* (* refers to P<0.05)
CCOC(=O)[C@@H]1CC2(CCN(c3cc(O[C@H](c4ccc(-c5cccc(OC)c5)cc4)C(F)(F)F)nc(N)n3)CC2)CN1 [Example 63ba, (S)-ethyl 8-(2-amino-6-((R)-2,2,2-trifluoro-1-(3′-methoxy-[1,1′-biphenyl]-4-yl)ethoxy)pyrimidin-4-yl)-2,8-diazaspiro[4.5]decane-3-carboxylate]	*** (*** refers to P<0.005)
CCOC(=O)CCc1ccc([C@@H](Oc2cc(N3CCC4(CC3)CN[C@H](C(=O)OCC)C4)nc(N)n2)C(F)(F)F)c(-n2ccc(C)n2)c1 [Example 63bz, (S)-ethyl 8-(2-amino-6-((R)-1-(4-(3-ethoxy-3-oxopropyl)-2-(3-methyl-1H-pyrazol-1-yl)phenyl)-2,2,2-trifluoroethoxy)pyrimidin-4-yl)-2,8-diazaspiro[4.5]decane-3-carboxylate]	** (** refers to P<0.01)
CCOC(=O)CCc1ccc(-c2ccc(-n3ccc(C)n3)c([C@@H](Oc3cc(N4CCC5(CC4)CN[C@H](C(=O)OCC)C5)nc(N)n3)C(F)(F)F)c2)cc1 [Example 63di, (S)-ethyl 8-(2-amino-6-((R)-1-(4′-(3-ethoxy-3-oxopropyl)-4-(3-methyl-1H-pyrazol-1-yl)-[1,1′-biphenyl]-3-yl)-2,2,2-trifluoroethoxy)pyrimidin-4-yl)-2,8-diazaspiro[4.5]decane-3-carboxylate]	*** (*** refers to P<0.005)
CCCCc1ccc(-n2ccc(C)n2)c([C@@H](Oc2cc(N3CCC4(CC3)CN[C@H](C(=O)OCC)C4)nc(N)n2)C(F)(F)F)c1 [Example 63bq, (S)-ethyl 8-(2-amino-6-((R)-1-(5-butyl-2-(3-methyl-1H-pyrazol-1-yl)phenyl)-2,2,2-trifluoroethoxy)pyrimidin-4-yl)-2,8-diazaspiro[4.5]decane-3-carboxylate]	**** (and refers to P<0.0005)
CCCCCOC(=O)[C@@H]1CC2(CCN(c3cc(O[C@H](c4ccc(Cl)cc4-n4ccc(C)n4)C(F)(F)F)nc(N)n3)CC2)CN1 [Example 64c, (S)-pentyl 8-(2-amino-6-((R)-1-(4-chloro-2-(3-methyl-1H-pyrazol-1-yl)phenyl)-2,2,2-trifluoroethoxy)pyrimidin-4-yl)-2,8-diazaspiro[4.5]decane-3-carboxylate]	**** (and refers to P<0.0005)
Cc1ccn(-c2cc(Cl)ccc2[C@@H](Oc2cc(N3CCC4(CC3)CNC(C(=O)O)C4)nc(NC3CCCCC3)n2)C(F)(F)F)n1 (stereo partly drawn) [Example 31, 8-(6-((R)-1-(4-chloro-2-(3-methyl-H-pyrazol-1-yl)phenyl)-2,2,2-trifluoroethoxy)-2-(cyclohexylamino)pyrimidin-4-yl)-2,8-diazaspiro[4.5]decane-3-carboxylic acid]	* (* refers to P<0.05)
Cc1ccn(-c2cc(Cl)ccc2[C@@H](Oc2cc(N3CCC4(CC3)CN[C@H](C(=O)OC(C)(C)C)C4)nc(N)n2)C(F)(F)F)n1 [Example 65a, (S)-Tert-butyl 8-(2-amino-6-((R)-1-(4-chloro-2-(3-methyl-1H-pyrazol-1-yl)phenyl)-2,2,2-trifluoroethoxy)pyrimidin-4-yl)-2,8-diazaspiro[4.5]decane-3-carboxylate]	**** (and refers to P<0.0005)
CCOC(=O)c1ccc(-n2ccc(C)n2)c([C@@H](Oc2cc(N3CCC4(CC3)CN[C@H](C(=O)OCC)C4)nc(N)n2)C(F)(F)F)c1 [Example 63bh, (S)-ethyl 8-(2-amino-6-((R)-1-(5-(ethoxycarbonyl)-2-(3-methyl-1H-pyrazol-1-yl)phenyl)-2,2,2-trifluoroethoxy)pyrimidin-4-yl)-2,8-diazaspiro[4.5]decane-3-carboxylate]	** (** refers to P<0.01)
CCOC(=O)c1cccc(-c2ccc([C@@H](Oc3cc(N4CCC5(CC4)CN[C@H](C(=O)O)C5)nc(N)n3)C(F)(F)F)c(-n3ccc(C)n3)c2)c1 [Example 5]	** (** refers to P<0.01)
CCOC(=O)[C@@H]1CC2(CCN(c3cc(O[C@H](c4ccc(-c5ccc6c(c5)CCNC6=O)cc4)C(F)(F)F)nc(N)n3)CC2)CN1 [Example 63bx, (S)-ethyl 8-(2-amino-6-((R)-2,2,2-trifluoro-1-(4-(1-oxo-1,2,3,4-tetrahydroisoquinolin-6-yl)phenyl)ethoxy)pyrimidin-4-yl)-2,8-diazaspiro[4.5]decane-3-carboxylate]	*** (*** refers to P<0.005)
CCOC(=O)[C@@H]1CC2(CCN(c3cc(O[C@H](c4ccc(-c5ccc6cnccc6c5)cc4)C(F)(F)F)nc(N)n3)CC2)CN1 [Example 63by, (S)-ethyl 8-(2-amino-6-((R)-2,2,2-trifluoro-1-(4-(isoquinolin-6-yl)phenyl)ethoxy)pyrimidin-4-yl)-2,8-diazaspiro[4.5]decane-3-carboxylate]	*** (*** refers to P<0.005)
Cc1ccn(-c2cc(Cl)ccc2[C@@H](Oc2cc(N3CCC4(CC3)CN[C@H](C(=O)OCCOC(=O)[C@H](N)C(C)C)C4)nc(N)n2)C(F)(F)F)n1 [Example 66c, (S)-2-(((R)-2-amino-3-methylbutanoyl)oxy)ethyl 8-(2-amino-6-((R)-1-(4-chloro-2-(3-methyl-1H-pyrazol-1-yl)phenyl)-2,2,2-trifluoroethoxy)pyrimidin-4-yl)-2,8-diazaspiro[4.5]decane-3-carboxylate]	**** (and refers to P<0.0005)
CCOC(=O)[C@@H]1CC2(CCN(c3cc(O[C@H](c4ccc(CC)cc4-n4ccc(C)n4)C(F)(F)F)nc(N)n3)CC2)CN1 [Example 63be, (S)-ethyl 8-(2-amino-6-((R)-1-(4-ethyl-2-(3-methyl-1H-pyrazol-1-yl)phenyl)-2,2,2-trifluoroethoxy)pyrimidin-4-yl)-2,8-diazaspiro[4.5]decane-3-carboxylate]	*** (*** refers to P<0.005)
CCCCOC(=O)[C@@H]1CC2(CCN(c3cc(O[C@H](c4ccc(Cl)cc4-n4ccc(C)n4)C(F)(F)F)nc(N)n3)CC2)CN1 [Example 64g, (S)-butyl 8-(2-amino-6-((R)-1-(4-chloro-2-(3-methyl-1H-pyrazol-1-yl)phenyl)-2,2,2-trifluoroethoxy)pyrimidin-4-yl)-2,8-diazaspiro[4.5]decane-3-carboxylate]	* (* refers to P<0.05)
CCOC(=O)[C@@H]1CC2(CCN(c3cc(O[C@H](c4ccc(-c5ccc(OC)c(OC)c5)cc4)C(F)(F)F)nc(N)n3)CC2)CN1 [Example 63g, (S)-ethyl 8-(2-amino-6-((R)-1-(3′,4′-dimethoxy-[1,1′-biphenyl]-4-yl)-2,2,2-trifluoroethoxy)pyrimidin-4-yl)-2,8-diazaspiro[4.5]decane-3-carboxylate]	*** (*** refers to P<0.005)
Cc1ccn(-c2cc(C(F)(F)F)ccc2[C@@H](Oc2cc(N3CCC4(CC3)CN[C@H](C(=O)O)C4)nc(N)n2)C(F)(F)F)n1 [Example 10g, (S)-8-(2-amino-6-((R)-2,2,2-trifluoro-1-(2-(3-methyl-1H-pyrazol-1-yl)-4-(trifluoromethyl)phenyl)ethoxy)pyrimidin-4-yl)-2,8-diazaspiro[4.5]decane-3-carboxylic acid]	** (** refers to P<0.01)
Cc1ccn(-c2cc(-c3cccnc3)ccc2[C@@H](Oc2cc(N3CCC4(CC3)CN[C@H](C(=O)O)C4)nc(C)n2)C(F)(F)F)n1 [Example 29z, (S)-8-(2-methyl-6-((R)-2,2,2-trifluoro-1-(2-(3-methyl-1H-pyrazol-1-yl)-4-(pyridin-3-yl)phenyl)ethoxy)pyrimidin-4-yl)-2,8-diazaspiro[4.5]decane-3-carboxylic acid]	** (** refers to P<0.01)
